Laboratory results as given in patent publication US7179612B2, “Method for detecting a lipoprotein-acute phase protein complex and predicting an increased risk of system failure or mortality” (bioMerieux, Inc., priority 2000, dated 2007).

What was measured:
VLDL/CRP complex [1] = biological target: T1, VLDL/CRP complex (Homo sapiens, UniProt P02741); assay: Inhibition of VLDL/CRP complex formation (Ca2+-dependent turbidity change); type: biochemical
T1 sequence (P02741 19-224): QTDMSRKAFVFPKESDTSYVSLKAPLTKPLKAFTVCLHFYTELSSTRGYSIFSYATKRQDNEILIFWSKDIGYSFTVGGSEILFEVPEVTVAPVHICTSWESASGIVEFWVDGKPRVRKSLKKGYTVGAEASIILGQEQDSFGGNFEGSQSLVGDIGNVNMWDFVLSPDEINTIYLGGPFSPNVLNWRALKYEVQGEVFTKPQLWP
Description: It is known that CRP binds directly to PC and that PC competes with lipoproteins for binding to CRP.

VLDL/CRP complex [2] = biological target: T1, VLDL/CRP complex; assay: Calcium concentration dependence of formation of the VLDL/CRP complex; type: biochemical; conditions: FIG. 38; read-out: calcium concentration at which complex formation is half maximal
Protocol: FIG. 38 is a graph depicting the calcium concentration dependence of formation of the VLDL/CRP complex. Complex formation is half maximal at 5.0 mM calcium.

CRP = biological target: T2, CRP (Homo sapiens, UniProt P02741); assay: Direct binding of apo(B) to CRP
T2 construct: from tissue; host or cells: patient plasma (calcium precipitate, ammonium sulfate fractionation, Q-Sepharose peak 3)
T2 sequence (P02741 19-224): T1 sequence (P02741 19-224)

| Compound | inhibition of complex formation (result in words) (VLDL/CRP complex [1]) | other results |
| --- | --- | --- |
| phosphotidylethanolamine | inhibited | – |
| [Ca+2] [calcium] | – | EC50 (VLDL/CRP complex [2]): 5 mM |
| phosphotidylcholine | inhibited | – |
| NCCCCCC(=O)O [EACA] | inhibited | IC50 (VLDL/CRP complex [1]; FIG. 40): 2.1 mM |
| apo(B): apo-lipoprotein B, the major protein component of VLDL | – | direct binding to CRP (result in words) (CRP): can bind directly to CRP |
| NCCOP(=O)(O)O [phosphorylethanolamine] | inhibited | – |
